Data: patent publication US12083115B2, “Methods for treating neurological symptoms associated with lysosomal storage diseases” (Genzyme Corporation, priority 2020, dated 2024)
Read-outs that look alike come from different tables or passages of the source.

Columns and labels:
[1] = tested on: adult patients with Gaucher disease Type 3; experiment: Clinical study in GD-3 patients: vMRI brain tissue volume (TBM analysis); assay type: in vivo, human; details: for Group A mean change in volume from Baseline to Week 52: Group A (eight patients), 15 mg/day + imiglucerase; for Patient 5 change in volume from Baseline to Week 52: Patient 5 (Compound 2 below LLOQ after 52 weeks)
Description: Neurological function was further evaluated using volumetric magnetic resonance imaging (vMRI). The vMRI data was collected at screening sessions at baseline and after 52 weeks of the treatment regime for eight patients (“Group A”) and an additional isolated patient (Patient 5). Group A corresponds to the eleven patients described above, excluding Patient 5 and two other patients lacking analyzable vMRI data.
vMRI data was obtained and subsequently analyzed using FreeSurfer anatomic parcellation and a Tensor-Based Morphometry (TBM) analysis cycle. FreeSurfer is an opensource software package for the analysis and visualization of structural and functional neuroimaging data developed by the Laboratory for Computational Neuroimaging. TBM analysis (also known as Jacobian Integration) consists in estimating the volume changes as captured within the deformation fields resulting from applying a symmetric deformable registration technique between a pair of MR scans (baseline and follow-up), using a non-linear symmetric log-demons deformation technique using robust cross-correlation metric to ensure invertibility of the transformation (symmetric process). The deformation field is then analyzed by computing the determinant of its Jacobian matrix, which is a measure of local volume change. An integration of the determinant over a region of interest provides an estimation of the change rate of the volume of this brain region over time.
The overall pipeline takes as input a baseline (BL) and a follow-up (FU) image and consists of the following steps: • 1. Preprocessing and reformatting; • 2. Segmentation of baseline (BL) and follow-up (FU) using FreeSurfer; • 3. Multi-resolution rigid and affine registration of FU and BL to midspace; • 4. Symmetric deformable nonlinear registration between FU and BL; • 5. Jacobian image computation; • 6. Voxel-wise volume change computation; • 7. Region-wise volume change integration; and • 8. Output for the changes for regions of interest specified for the study.

[2] = Study 2: ascending repeated-dose PK in healthy adults; assay type: in vivo, human; details: for AUC0-24, Geometric mean / AUC0-24, Mean / Cmax, Geometric mean / Cmax, Mean / tmax, median / CLR(0-24), Mean / CLss/F, Geometric mean / CLss/F, Mean / Ctrough, Geometric mean / Ctrough, Mean / CLR(0-24), Geometric mean / half-life: N = 9; for half-life: plasma
Experimental: The study enrolled and randomized 36 healthy adults (19 men and 17 women) (n=9 each to group).
Pharmacodynamic endpoints (plasma GL-1, GL-3, and GM3 concentrations) were assessed on Days 1-5, 8, 11, 13, and 14, at 0 hours […]; and on Day 15, at 24 hours after the Day 14 dose.

[3] = repeated once-daily doses from 5-20 mg

SMILES: CC(C)(NC(=O)O[C@@H]1CN2CCC1CC2)c1csc(-c2ccc(F)cc2)n1 [Compound 2, (S)-quinuclidin-3-yl 2-(2-(4-fluorophenyl)thiazol-4-yl)propan-2-ylcarbamate]
- whole brain tissue volume ([1]; Group A, 52 weeks, FIG. 1): overall increase in whole brain tissue volume
- Group A mean change in volume from Baseline to Week 52 ([1]; Left Cuneus): +37.16 mm^3
- Patient 5 change in volume from Baseline to Week 52 ([1]; Left Cuneus): −23.9 mm^3
- Group A mean change in volume from Baseline to Week 52 ([1]; Left Entorhinal Cortex): +34.53 mm^3
- Patient 5 change in volume from Baseline to Week 52 ([1]; Left Entorhinal Cortex): +41.4 mm^3
- Group A mean change in volume from Baseline to Week 52 ([1]; Left Lingual): +50.08 mm^3
- Patient 5 change in volume from Baseline to Week 52 ([1]; Left Lingual): −60.0 mm^3
- Group A mean change in volume from Baseline to Week 52 ([1]; Left Pericalcarine Lobe): +18.46 mm^3
- Patient 5 change in volume from Baseline to Week 52 ([1]; Left Pericalcarine Lobe): −29.2 mm^3
- Group A mean change in volume from Baseline to Week 52 ([1]; Left Putamen): +94.70 mm^3
- Patient 5 change in volume from Baseline to Week 52 ([1]; Left Putamen): −51.7 mm^3
- whole brain volume ([1]; Patient 5 (did not successfully undergo the treatment regime), 52 weeks, FIG. 1): decrease in whole brain volume
- Group A mean change in volume from Baseline to Week 52 ([1]; Right Accumbens Area): +12.86 mm^3
- Patient 5 change in volume from Baseline to Week 52 ([1]; Right Accumbens Area): −52.1 mm^3
- Group A mean change in volume from Baseline to Week 52 ([1]; Right Amygdala): +60.78 mm^3
- Patient 5 change in volume from Baseline to Week 52 ([1]; Right Amygdala): −63.4 mm^3
- Group A mean change in volume from Baseline to Week 52 ([1]; Right Postcentral Lobe): +91.66 mm^3
- Patient 5 change in volume from Baseline to Week 52 ([1]; Right Postcentral Lobe): −63.4 mm^3
- Group A mean change in volume from Baseline to Week 52 ([1]; Right Putamen): +97.84 mm^3
- Patient 5 change in volume from Baseline to Week 52 ([1]; Right Putamen): −63.1 mm^3
- Ctrough values over time ([2]; 5, 10, or 20 mg once daily for 14 days): reached a plateau after Day 5
- median time of plasma Cmax ([2]; 5, 10, or 20 mg once daily for 14 days, Days 1 and 14): 2 to 5 h
- AUC0-24, Geometric mean ([2]; Day 1, 5 mg once daily): 292 ng·h/mL
- AUC0-24, Mean ([2]; Day 1, 5 mg once daily): 296 ng·h/mL
- Cmax, Geometric mean ([2]; Day 1, 5 mg once daily): 18.2 ng/mL
- Cmax, Mean ([2]; Day 1, 5 mg once daily): 18.5 ng/mL
- tmax, median ([2]; Day 1, 5 mg once daily): 5.00 h
- AUC0-24, Geometric mean ([2]; Day 1, 10 mg once daily): 623 ng·h/mL
- AUC0-24, Mean ([2]; Day 1, 10 mg once daily): 635 ng·h/mL
- Cmax, Geometric mean ([2]; Day 1, 10 mg once daily): 37.8 ng/mL
- Cmax, Mean ([2]; Day 1, 10 mg once daily): 38.5 ng/mL
- tmax, median ([2]; Day 1, 10 mg once daily): 3.00 h
- AUC0-24, Geometric mean ([2]; Day 1, 20 mg once daily): 1,080 ng · h/mL
- AUC0-24, Mean ([2]; Day 1, 20 mg once daily): 1,100 ng · h/mL
- Cmax, Geometric mean ([2]; Day 1, 20 mg once daily): 66.5 ng/mL
- Cmax, Mean ([2]; Day 1, 20 mg once daily): 68.0 ng/mL
- tmax, median ([2]; Day 1, 20 mg once daily): 3.07 h
- AUC0-24, Geometric mean ([2]; Day 14, 5 mg once daily): 632 ng·h/mL
- AUC0-24, Mean ([2]; Day 14, 5 mg once daily): 642 ng·h/mL
- CLR(0-24), Mean ([2]; Day 14, 5 mg once daily): 1.55 L/h
- CLss/F, Geometric mean ([2]; Day 14, 5 mg once daily): 5.9 L/h
- CLss/F, Mean ([2]; Day 14, 5 mg once daily): 5.98 L/h
- Cmax, Geometric mean ([2]; Day 14, 5 mg once daily): 36.5 ng/mL
- Cmax, Mean ([2]; Day 14, 5 mg once daily): 37.0 ng/mL
- Ctrough, Geometric mean ([2]; Day 14, 5 mg once daily): 19.0 ng/mL
- Ctrough, Mean ([2]; Day 14, 5 mg once daily): 19.4 ng/mL
- tmax, median ([2]; Day 14, 5 mg once daily): 3.00 h
- AUC0-24, Geometric mean ([2]; Day 14, 10 mg once daily): 1,490 ng · h/mL
- AUC0-24, Mean ([2]; Day 14, 10 mg once daily): 1,550 ng · h/mL
- CLR(0-24), Geometric mean ([2]; Day 14, 10 mg once daily): 1.4 L/h
- CLR(0-24), Mean ([2]; Day 14, 10 mg once daily): 1.49 L/h
- CLss/F, Geometric mean ([2]; Day 14, 10 mg once daily): 5.0 L/h
- CLss/F, Mean ([2]; Day 14, 10 mg once daily): 5.13 L/h
- Cmax, Geometric mean ([2]; Day 14, 10 mg once daily): 86.0 ng/mL
- Cmax, Mean ([2]; Day 14, 10 mg once daily): 89.7 ng/mL
- Ctrough, Geometric mean ([2]; Day 14, 10 mg once daily): 47.5 ng/mL
- Ctrough, Mean ([2]; Day 14, 10 mg once daily): 49.9 ng/mL
- tmax, median ([2]; Day 14, 10 mg once daily): 2.00 h
- AUC0-24, Geometric mean ([2]; Day 14, 20 mg once daily): 2,340 ng · h/mL
- AUC0-24, Mean ([2]; Day 14, 20 mg once daily): 2,420 ng · h/mL
- CLR(0-24), Geometric mean ([2]; Day 14, 20 mg once daily): 2.0 L/h
- CLR(0-24), Mean ([2]; Day 14, 20 mg once daily): 2.07 L/h
- CLss/F, Geometric mean ([2]; Day 14, 20 mg once daily): 6.4 L/h
- CLss/F, Mean ([2]; Day 14, 20 mg once daily): 6.58 L/h
- Cmax, Geometric mean ([2]; Day 14, 20 mg once daily): 137 ng/mL
- Cmax, Mean ([2]; Day 14, 20 mg once daily): 142 ng/mL
- Ctrough, Geometric mean ([2]; Day 14, 20 mg once daily): 69.9 ng/mL
- Ctrough, Mean ([2]; Day 14, 20 mg once daily): 73.3 ng/mL
- tmax, median ([2]; Day 14, 20 mg once daily): 3.00 h
- half-life ([2]; both sexes, human, oral, 5 mg, Day 14, 5 mg once daily, read-out: t1/2, Geometric mean (converted)): 29 h
- half-life ([2]; both sexes, human, oral, 5 mg, Day 14, 5 mg once daily, read-out: t1/2, Mean (converted)): 29.3 h
- half-life ([2]; both sexes, human, oral, 10 mg, Day 14, 10 mg once daily, read-out: t1/2, Geometric mean (converted)): 31.2 h
- half-life ([2]; both sexes, human, oral, 10 mg, Day 14, 10 mg once daily, read-out: t1/2, Mean (converted)): 31.3 h
- half-life ([2]; both sexes, human, oral, 20 mg, Day 14, 20 mg once daily, read-out: t1/2, Geometric mean (converted)): 34.5 h
- half-life ([2]; both sexes, human, oral, 20 mg, Day 14, 20 mg once daily, read-out: t1/2, Mean (converted)): 35 h
- CL renal ([2]; both sexes, human, urine and plasma, oral, After 14 once-daily doses, 5-20 mg, read-out: Mean CLR(0-24)): 24.8 to 34.5 mL/min
- effect of age and gender on accumulation [2, 3]: neither age nor gender affected accumulation
- time to steady state [2, 3]: ≤ 5 days
